Entries after “also recorded” stand apart in the source; their conditions may differ.
How the values were obtained:
[1] = system: SW1 melanoma cell; assay: Thapsigargin-induced death of SW1 cells, ATP content assay; format: cell-based, human
Procedure: In addition to CSM14.1 cells, when tested at 25 μM, Compound 5962123 protected by >50% against thapsigargin-induced death of several tumor cell lines (HeLa human cervical cancer, SW1 melanoma cell, PPC1, human prostate cancer), mouse neural stem cell C17.2 (both differentiated [neuronal phenotype] and non-differentiated [stem cell phenotype]) as determined by ATP content assay, and primary rat cortical neurons as determined by microscopy assay measuring the percentage of NeuN-immunopositive cells with either normal or apoptotic nuclear morphology (Hoechst dye staining).
For PC12, cells were stimulated with 20 ng/ml NGF for five days; for C17.2, cells were stimulated with serum reduction, and 1% N2 incubation for three days; for CSM14.1, cells were cultured at 39° C. for 5-7 days.

[2] = system: ATF4; assay: Thapsigargin-induced expression of ATF4 (immunoblotting); format: cell-based, rat; conditions: listed as CID-2878746
[3] = system: Jurkat human T-leukemia; assay: Thapsigargin-induced death of Jurkat cells, ATP content assay; format: cell-based; conditions: 25 μM
Procedure: To explore whether compounds broadly protect cells of various lineages versus only neuronal cells, we tested all 26 hits for ability to rescue CSM14.1 (neuronal), and Jurkat (lymphoid), cell lines from cell death induced by TG. […] CSM 14.1 (FIG. 15, left) and Jurkat cells (FIG. 15, right) were cultured overnight at 3,000 cells per well or at 30,000 cells per well, respectively, in 96-well plates. Wells received DMSO alone or 25 μM compounds in DMSO, followed by treatment with or without TG (15 μM). After culturing for 24 hrs, ATP content was determined, expressing data as a percentage control relative to cells treated only with DMSO (mean ±SD; n=3). The data reveal that one of the compounds protects CSM14.1 but not Jurkat cells from TG-induced cell death (as measured by the ATPlite assay). […]
In addition to CSM14.1 cells, when tested at 25 μM, Compound 5962123 protected by >50% against thapsigargin-induced death of several tumor cell lines (HeLa human cervical cancer, SW1 melanoma cell, PPC1, human prostate cancer), mouse neural stem cell C17.2 (both differentiated [neuronal phenotype] and non-differentiated [stem cell phenotype]) as determined by ATP content assay, and primary rat cortical neurons as determined by microscopy assay measuring the percentage of NeuN-immunopositive cells with either normal or apoptotic nuclear morphology (Hoechst dye staining). […]

[4] = system: Jnk-1 and Jnk-2; assay: c-Jun activation by purified Jnk-1 and Jnk-2, in vitro kinase assay; format: biochemical; conditions: 50 μM compound
Procedure: C-Jun and p38 MAPK work downstream of the Ire1 pathway (see FIG. 21), we tested whether one of our hit compounds (6239507) inhibits autophosphorylation of any of kinases in this Ire1-ASK1-JNK/p38 MAPK pathway. […] An Ire1 autophosphorylation assay was performed. Immunoprecipitated Ire1 was incubated with DMSO (2%), 50 μM compound 6239507, or the positive control staurosporine (20 μM; STS) for 20 minutes at 30° C. followed by chilling on ice. 0.5 μCi of ^32P-γ-ATP was added to each tube and incubated at 30° C. for the indicated times. Kinase reactions were finished by adding sample buffer. Incorporation values of ^32P-γ-ATP were evaluated by a scintillation counter. An ASK1-MKK6-p38 coupled assay was also performed. Immunoprecipitated ASK1 was mixed with 1 μg MKK6 (Millipore) and 1 μg p38 MAPK (Sigma). Kinases were incubated with 2% DMSO, 50 μM compound 6239507, or 20 μM staurosporine (STS) in one tube for 20 minutes at 30° C. followed by ice chilling. 0.5 μCi of ^32P-γ-ATP was added to each tube and incubated at 30° C. for the indicated times. Kinase reactions were finished by adding sample buffer. Incorporation values of ^32P-γ-ATP were evaluated by a scintillation counter. C-Jun activation by purified Jnk-1 and Jnk-2 (Millipore) was confirmed with the same procedures.

Compound | Protection against thapsigargin-induced death, SW1 ([1]; 25 μM, ATP content assay) [%] | Cytoprotective activity in thapsigargin-treated SW1 ([1]; ATP content assay) | Cytoprotective activity, SW1 (Result) ([1]; thapsigargin 15 μM, ATP content, compound ≦25 μM) | Thapsigargin-induced expression of ATF4 [2] | Final DMSO concentration needed in culture media to avoid a visible cloudy precipitate | Protection of Jurkat cells from thapsigargin-induced cell death [3] | JNK's activity on c-Jun [4]
CCN(CC)c1ccc(C2Nc3ccccc3NC3=C2C(=O)CC(c2ccccc2)C3)cc1 (stereo not shown) [Compound 5962123, 6-(4-diethylaminophenyl)-9-phenyl-5,6,8,9,10,11-hexahydrobenzo[c][1,5]benzodiazepin-7-one] | > 50 | demonstrated | + (+indicates >50% rescue of cell viability relative to untreated cells not exposed to thapsigargin at compound concentration of ≦25 μM) | not inhibited | at least 0.2 % (v/v) | does not protect; also recorded: inactive | 
COc1ccc(C2CC(=O)C3=C(C2)Nc2ccccc2NC3c2cccc(Oc3ccccc3)c2)cc1OC (stereo not shown) [Compound 6239507] |  |  |  |  |  |  | does not modulate

Source: patent US20080293699A1, “Inhibitors of thapsigargin-induced cell death” (priority 2007, published 2008)
